Measured values published in patent publication US10808008B2, “Aromatic-cationic peptides and uses of same” (Cornell University, priority 2012, dated 2020).
Entries after “also recorded” stand apart in the source; their conditions may differ.

Assays:
Assay type in all cases: biochemical
[1] = target: cytochrome c/cardiolipin complex (Equus caballus, UniProt P00004); assay: Soret circular dichroism of cytochrome c with cardiolipin; settings: 10 μM cytochrome c; for protection against CL-induced disappearance of negative Cotton effect: 30 μg/ml CL, 10 μM peptide, 20 mM HEPES pH 7.5, 25° C.; for loss of the negative Cotton peak at 419 nm caused by cardiolipin: 30 μg/ml cardiolipin, peptide 1:1 with cytochrome c, pH 7.4
Chain of cytochrome c/cardiolipin complex (P00004 2-105 limits assumed, one chain of several): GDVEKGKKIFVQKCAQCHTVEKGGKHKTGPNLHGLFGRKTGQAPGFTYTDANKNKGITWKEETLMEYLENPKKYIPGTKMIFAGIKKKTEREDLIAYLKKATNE
Protocol: Circular dichroism (CD) was carried out to examine the effects of the peptides on protecting the heme environment of cytochrome c from the acyl chain of CL. For heme proteins, the Soret CD spectrum is strictly correlated with the heme pocket conformation. In particular, the negative 416-420 nm Cotton effect is considered diagnostic of Fe(III)-Met80 coordination in native cytochrome c (Santucci and Ascoli, 1997). […] CD spectra were obtained using AVIV CD Spectrometer Model 410.
Changes in the Soret CD spectrum of cytochrome c (10 μM) were recorded in the absence (dotted line) and presence (dashed line) of 30 μg/ml CL, plus addition of different peptides (10 μM) (solid line) (FIG. 14). CD measurements were carried out using 20 mM HEPES, pH 7.5, at 25° C. and expressed as molar ellipticity (A) (m Deg). […] Accordingly, aromatic-cationic peptides of the present disclosure are useful for the prevention or treatment of diseases or disorders characterized by dysregulation of cardiolipin and/or cytochrome c, and/or diseases or disorders characterized by dysregulation of the cardiolipin/cytochrome c interaction. In addition, aromatic-cationic peptides of the present disclosure are useful to protect the heme environment of cytochrome c from the acyl chain of cardiolipin.
Circular Dichroism (CD) spectra were collected with an AVIA 62 DS spectrophotometer equipped with a sample temperature controller. CD spectra of the Soret region (370-450 nm) were recorded with 10-mm path length cells containing 20 mM Hepes, pH 7.4, and 10 μM cytochrome c, in the presence or absence of 30 μg/ml cardiolipin and different SS peptide analogs (SS-02, [atn]SS-02, [ald]SS-02, and SS-31). The maximum lipid concentration was kept low to avoid spectral distortions due to excessive light scattering. All measurements were done at 25° C. All spectra were corrected for background, and the final spectrum shown represents the average of at least three experiments.

[2] = target: cardiolipin-cytochrome c complex (Equus caballus, UniProt P00004); assay: Cytochrome c reduction in the presence of cardiolipin; settings: for rate of cytochrome c reduction in the presence of cardiolipin: 40 μM peptide, 100 μg/ml cardiolipin, 50 μM ascorbate, 10% with cardiolipin alone
Chain of cardiolipin-cytochrome c complex (P00004 2-105 limits assumed, one chain of several): as above
Protocol: Reduction of cytochrome c (20 μM) was induced by the addition of glutathione (500 μM) in the absence or presence of CL (100 μg/ml) (FIG. 15A). Reduction of cytochrome c was monitored by absorbance at 550 nm using a 96-well UV-VIS plate reader (Molecular Devices). Addition of CL decreased the rate of cytochrome c reduction by half.
The time course of cytochrome c reduction by ascorbate was recorded at 550 nm and 570 nm using a 96-well plate reader (Molecular Devices, Sunnyvale, Calif.). For all reactions, cytochrome c was preincubated with cardiolipin in the presence or absence of SS peptides for 1 min. […] Ascorbate (50 μM) was added to initiate the reduction of cytochrome c, and the absorbance was recorded for 5 min. The rate of reduction was calculated based on slope of the change in absorbance intensity of 550 nm over 570 nm.

cytochrome c/CL complex = cytochrome c/CL complex (Equus caballus, UniProt P00004); assay: Peroxidase activity of cytochrome c/cardiolipin complex (Amplex Red); settings: 2 μM cytochrome c; for peroxidation rate of cytochrome c: 10 μM peptide, cardiolipin 100 μg/ml
Chain of cytochrome c/CL complex (P00004 2-105 limits assumed, one chain of several): as above
Description: The six coordination of the heme in cytochrome c prevents direct interaction of H2O2 with the catalytic metal site, and native cytochrome c in solution is a poor peroxidase. Upon interaction with CL, cytochrome c undergoes a structural change with rupture of the Fe-Met80 coordination. […] The mechanism of action of cytochrome c peroxidase is similar to that of other peroxidases, such as horse radish peroxidase (HRP). Thus it is possible to use the amplex red-HRP reaction to investigate cytochrome c peroxidase activity. In the presence of peroxidase, amplex red (AR) reacts with H2O2 to form the red-fluorescent oxidation product, resorufin (Ex/Em=571/585).
Cytochrome c (2 μM) was mixed with CL (25 μg/ml) and 10 μM H2O2 in 20 mM HEPES, pH 7.4. Amplex red (50 μM) was then added and fluorescence emission monitored in real time using Hitachi F4500 fluorescence spectrophotometer. Addition of amplex red elicited rapid increase in fluorescence signal due to resorufin formation, providing direct evidence for peroxidase activity of cytochrome c/CL complex (FIG. 19A).
Assessment of cytochrome c peroxidase activity was achieved using the Amplex® Red assay (Invitrogen/Life Technologies, Carlsbad, Calif.). Amplex® Red is a reagent that reacts with H2O2 in a 1:1 stoichiometry to produce highly fluorescent resorufin (λex/λem=570/585) in the presence of a peroxidase. In this assay, cytochrome c is added in place of horseradish peroxidase. 2 μM cytochrome c was incubated with cardiolipin or cardiolipin-POPC liposomes (10 μg/ml) for 1 min in 20 mM HEPES (pH 7.4) or deionized water prior to the addition of 50 μM Amplex® Red reagent and 10 μM H2O2, and the reaction was allowed to proceed for an additional 5 minutes. The continuous time course data were obtained using Hitachi F-4500 fluorescence spectrophotometer. When comparing the different SS peptide analogs (10 μM) in inhibiting peroxidase activity cytochrome c (2 μM) in the presence of cardiolipin (100 μg/ml), a microplate spectrofluorometer (Molecular Devices, Sunnyvale, Calif.) was used. Horseradish peroxidase (HRP) was used for comparison, and the HRP concentration (0.001 U/ml) was optimized to match the rate of Amplex® Red peroxidation by cardiolipin-cytochrome c complex.

[3] = target: cytochrome c and cardiolipin (Equus caballus, UniProt P00004); assay: Oxidation of ferrous cytochrome c by cardiolipin (A550); settings: 20 μM cytochrome c reduced by 50 μM ascorbic acid; 100 μg/ml cardiolipin
Chain of cytochrome c and cardiolipin (P00004 2-105 limits assumed): as the sequence (P00004 2-105 limits assumed, one chain of several) above
Protocol: Cytochrome c (20 μM) was reduced by 50 μM ascorbic acid until all available functionally active cytochrome c was reduced. The reduction of cytochrome c was monitored by the appearance of a peak at 550 nm in its absorbance spectrum (Molecular Devices, Sunnyvale, Calif.). […] The rate of oxidation was calculated based on slope of the change in absorbance intensity of 550 nm over 570 nm.

| Substance | protection against CL-induced disappearance of negative Cotton effect [1] | loss of the negative Cotton peak at 419 nm caused by cardiolipin [1] | rate of cytochrome c reduction in the presence of cardiolipin ([2]; 20 μM cytochrome c) | peroxidation rate of cytochrome c (cytochrome c/CL complex) | oxidation of cytochrome c by cardiolipin (loss of the 550 nm peak) [3] | inhibitory action of CL on cytochrome c reduction ([2]; 20 μM cytochrome c, 500 μM glutathione, CL 100 μg/ml, SS-31 20, 40 or 100 μM) | inhibitory effect of CL on kinetics of cytochrome c reduction ([2]; 500 μM GSH or 50 μM ascorbate) | rate of amplex red peroxidation / kinetics of cytochrome c peroxidase activity (cytochrome c/CL complex; CL 25 μg/ml, 10 μM H2O2, 50 μM amplex red) |
| --- | --- | --- | --- | --- | --- | --- | --- | --- |
| 2′,6′-Dmt-D-Arg-Ald-Lys-NH2 [SS-36] | Protect the Heme Environment of Cytochrome c from the Acyl Chain of CL | prevented | about 90% | about 20 % of control | inhibition of cytochrome c oxidation | – | – | – |
| 2′,6′-Dmt-D-Arg-Phe-(atn)Dap-NH2 [SS-19] | Protect the Heme Environment of Cytochrome c from the Acyl Chain of CL | prevented | about 50% | ~75 % of control | inhibition of cytochrome c oxidation | – | – | – |
| D-Arg-2′,6′-Dmt-Lys-Phe-NH2 [SS-31] | Protect the Heme Environment of Cytochrome c from the Acyl Chain of CL | prevented | 100% | ~35 % of control | prevented by the addition of SS-31 in a concentration-dependent manner | dose-dependently prevented the inhibitory action of CL | dose-dependently overcame the inhibitory effect of CL | decreased the rate of amplex red peroxidation; also recorded: dose-dependently reduced the kinetics of cytochrome c peroxidase activity |
